Experimental findings from patent US11180462B2, “Microbiocidal oxadiazole derivatives” (SYNGENTA PARTICIPATIONS AG, priority 2015, dated 2021) are described below.

Each structure is given as a SMILES string. Bounds are passed on as bounds.

One test relates to Phakopsora Pachyrhizi. The test can be described thus: Fungicidal activity against Phakopsora pachyrhizi / soybean / leaf disc preventative (Asian soybean rust). In kind it is in vivo. The following applies: foliar, 200 ppm in the applied formulation, soybean leaf disks, compared to untreated control leaf disks, read-out: disease control. The protocol:
Leaf disks or leaf segments of various plant species are cut from plants grown in a greenhouse. The cut leaf disks or segments are placed in multiwell plates (24-well format) onto water agar. The leaf disks are sprayed with a test solution before (preventative) or after (curative) inoculation. Compounds to be tested are prepared as DMSO solutions (max. 10 mg/ml) which are diluted to the appropriate concentration with 0.025% Tween20 just before spraying. The inoculated leaf disks or segments are incubated under defined conditions (temperature, relative humidity, light, etc.) according to the respective test system. A single evaluation of disease level is carried out 3 to 14 days after inoculation, depending on the pathosystem. Percent disease control relative to the untreated check leaf disks or segments is then calculated.
Fungicidal Activity Against Phakopsora Pachyrhizi Soybean/Leaf Disc Preventative (Asian Soybean Rust)
Soybean leaf disks are placed on water agar in multiwell plates (24-well format) and sprayed with the formulated test compound diluted in water. One day after application leaf discs are inoculated by spraying a spore suspension on the lower leaf surface. After an incubation period in a climate cabinet of 24-36 hours in darkness at 20° C. and 75% rh leaf disc are kept at 20° C. with 12 h light/day and 75% rh. The activity of a compound is assessed as percent disease control compared to untreated when an appropriate level of disease damage appears in untreated check leaf disks (12 to 14 days after application).
The following compounds at 200 ppm in the applied formulation give at least 80% disease control in this test when compared to untreated control leaf disks under the same conditions, which show extensive disease development.

For test [1], the system named is Glomerella lagenarium (Colletotrichum lagenarium). Nature of the test: Fungicidal activity against Glomerella lagenarium (Colletotrichum lagenarium) liquid culture / cucumber / preventative (anthracnose). The test is classed as cell-based. The settings on record: Colletotrichum orbiculare; 20 ppm in the applied formulation; liquid culture (PDB), growth inhibition measured photometrically after 3 to 4 days; compared to untreated control; read-out: disease control. Summed up:
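Photometric read-out of fungal growth after 2–7 days, expressed as percent antifungal activity versus untreated check. Cryo-stored conidia in PDB; compound at 20 ppm; dark, 24 °C, 96% RH.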

Test [2] deals with Puccinia recondita f. Sp. Tritici. The test can be described thus: Fungicidal activity against Puccinia recondita f. sp. tritici / wheat / leaf disc preventative (brown rust). The test is classed as in vivo. The settings on record: foliar, 200 ppm in the applied formulation, wheat leaf segments, preventative, compared to untreated control leaf disks, read-out: disease control. An outline of the steps:
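Preventative leaf-segment test, wheat cv. Kanzler on water agar. Spray compound at 200 ppm, inoculate with spores 1 day later; 19° C., 75% rh, 12/12 h light. Read-out: % disease control vs untreated, 7 to 9 days after application.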

For test [3] the test system is unchanged. The test can be described thus: Fungicidal activity against Puccinia recondita f. sp. tritici / wheat / leaf disc curative (brown rust). The test is classed as in vivo. The settings on record: foliar, 24 h, 200 ppm in the applied formulation, wheat leaf segments, curative (applied 1 day after inoculation), compared to untreated control leaf disks, read-out: disease control. An outline of the steps:
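Segments of wheat cv. Kanzler were laid on agar and inoculated with a spore suspension of the rust, then held in darkness at 19° C and 75% relative humidity. One day later the water-diluted formulated compound was applied, with incubation continued under a 12 h light/dark cycle.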

Take `CCCCON(Cc1ccc(-c2noc(C(F)(F)F)n2)cc1)C(=O)CC(F)(F)F` [Compound 1.648, N-butoxy-3,3,3-trifluoro-N-[[4-[5-(trifluoromethyl)-1,2,4-oxadiazol-3-yl]phenyl]methyl]-propanamide]: the pest or weed control at 200 ppm in the test with Phakopsora Pachyrhizi was not below 80%. In test [1], the inhibition of growth at 20 ppm is not below 80%.
Regarding `CCCCON(Cc1ccc(-c2noc(C(F)(F)F)n2)cc1)C(=O)C1(C)COC1` [Compound 1.641, N-butoxy-3-methyl-N-[[4-[5-(trifluoromethyl)-1,2,4-oxadiazol-3-yl]phenyl]methyl]-oxetane-3-carboxamide], the pest or weed control at 200 ppm in the test on Phakopsora Pachyrhizi is not below 80%. The inhibition of growth at 20 ppm in test [1] was not below 80%.
For the compound `CC1CC1C(=O)N(Cc1ccc(-c2noc(C(F)(F)F)n2)cc1)CC(F)(F)F` (centres unmarked) [Compound 1.695, 2-methyl-N-(2,2,2-trifluoroethyl)-N-[[4-[5-(trifluoromethyl)-1,2,4-oxadiazol-3-yl]phenyl]methyl]-cyclopropane-carboxamide], the pest or weed control at 200 ppm in the test on Phakopsora Pachyrhizi is not below 80%. The inhibition of growth at 20 ppm in test [1] was not below 80%.
Take `C#CCN(Cc1ccc(-c2noc(C(F)(F)F)n2)cc1)C(=O)C(C)(CC)CC` [Compound 1.195, 2-ethyl-2-methyl-N-prop-2-ynyl-N-[[4-[5-(trifluoromethyl)-1,2,4-oxadiazol-3-yl]phenyl]methyl]-butanamide]: the pest or weed control at 200 ppm in the test with Phakopsora Pachyrhizi is not below 80%. Further, the inhibition of growth at 20 ppm in test [1] was not below 80%.
Turning to `O=C(C1CC1)N(Cc1ccc(-c2noc(C(F)(F)F)n2)cc1)CC1CC1` [Compound 1.246, N-(cyclopropylmethyl)-N-[[4-[5-(trifluoromethyl)-1,2,4-oxadiazol-3-yl]phenyl]methyl]-cyclopropane-carboxamide], the pest or weed control at 200 ppm in the test with Phakopsora Pachyrhizi was not below 80%. Also, the inhibition of growth at 20 ppm in test [1] was not below 80%.
Regarding `CCCN(Cc1ccc(-c2noc(C(F)(F)F)n2)cc1)C(=O)c1ccccc1Cl` [Compound 1.653, 2-chloro-N-propyl-N-[[4-[5-(trifiuoromethyl)-1,2,4-oxadiazol-3-yl]phenyl]methyl]-benzamide], the pest or weed control at 200 ppm in the test with Phakopsora Pachyrhizi was not below 80%. Moreover, the inhibition of growth at 20 ppm in test [1] is not below 80%.
With `N#CC1(C(=O)OCCN(Cc2ccc(-c3noc(C(F)(F)F)n3)cc2)C(=O)C2(C#N)CC2)CC1` [Compound 1.730, 2-[(1-cyanocyclopropane-carbonyl)-[[4-[5-(trifluoromethyl)-1,2,4-oxadiazol-3-yl]phenyl]methyl]-amino]ethyl 1-cyanocyclopropane-carboxylate], the pest or weed control at 200 ppm with Phakopsora Pachyrhizi is not below 80%. The inhibition of growth at 20 ppm in test [1] was not below 80%.
`O=C(C1CCC1)N(Cc1ccc(-c2noc(C(F)(F)F)n2)cc1)CC(F)(F)F` [Compound 1.694, N-(2,2,2-trifluoroethyl)-N-[[4-[5-(trifluoromethyl)-1,2,4-oxadiazol-3-yl]phenyl]methyl]-cyclobutane-carboxamide]: the pest or weed control at 200 ppm in the test with Phakopsora Pachyrhizi was not below 80%. The inhibition of growth at 20 ppm in test [1] is not below 80%.
Regarding `O=C(OCCN(Cc1ccc(-c2noc(C(F)(F)F)n2)cc1)C(=O)c1ccccc1Cl)c1ccccc1Cl` [Compound 1.710, 2-[(2-chlorobenzoyl)-[[4-[5-(trifluoromethyl)-1,2,4-oxadiazol-3-yl]phenyl]methyl]-amino]ethyl 2-chlorobonzoato], the pest or weed control at 200 ppm in the test on Phakopsora Pachyrhizi was not below 80%.
On the same count and under the same terms, the value for `COCCCC(=O)N(Cc1ccc(-c2noc(C(F)(F)F)n2)cc1)C1COC1` [Compound 1.746, 4-methoxy-N-(oxetan-3-yl)-N-[[4-[5-(trifluoromethyl)-1,2,4-oxadiazol-3-yl]phenyl]methyl]-butanamide] was not below 80%; that for `C#CCOC(=O)NC(C(=O)N(Cc1ccc(-c2noc(C(F)(F)F)n2)cc1)CC1CC1)C(C)C` (centres unmarked) [Compound 1.241, prop-2-ynyl N-[1-(cyclopropylmethyl-[[4-[5-(trifluoromethyl)-1,2,4-oxadiazol-3-yl]phenyl]methyl]-carbamoyl]-2-methyl-propyl]carbamate] was not below 80%.
The same measure, in the same setting: the value for `C#CCN(Cc1ccc(-c2noc(C(F)(F)F)n2)cc1)C(=O)CC1CC1(F)F` (centres unmarked) [Compound 1.197, 2-(2,2-difluorocyclopropyl)-N-prop-2-ynyl-N-[[4-[5-(trifluoromethyl)-1,2,4-oxadiazol-3-yl]phenyl]methyl]-acetamide] was not below 80%.
As to `CON(C(=O)COC(C)=O)C(C)c1ccc(-c2noc(C(F)(F)F)n2)cc1` (centres unmarked) [Compound 1.270, [2-[methoxy-[1-[4-[5-(trifluoromethyl)-1,2,4-oxadiazol-3-yl]phenyl]ethyl]-amino]-2-oxo-ethyl] acetate], the inhibition of growth at 20 ppm in test [1] was not below 80%. The pest or weed control at 200 ppm in test [2] and in test [3] was not below 80% each time.
For `O=C(c1cccc2nnsc12)N(Cc1ccc(-c2noc(C(F)(F)F)n2)cc1)C1CC1` [Compound 1.139, N-cyclopropyl-N-[[4-[5-(trifluoromethyl)-1,2,4-oxadiazol-3-yl]phenyl]methyl]-1,2,3-benzothiadiazole-7-carboxamide], the inhibition of growth at 20 ppm in test [1] is not below 80%. In addition, the pest or weed control at 200 ppm in test [2] and in test [3] was not below 80% in each case.
Regarding `CON(Cc1ccc(-c2noc(C(F)(F)F)n2)cc1)C(=O)OC(C)C` [Compound 2.14, isopropyl N-methoxy-N-[[4-[5-(trifluoromethyl)-1,2,4-oxadiazol-3-yl]phenyl]methyl]-carbamate], in test [1], the inhibition of growth at 20 ppm is not below 80%. The pest or weed control at 200 ppm in test [2] and in test [3] was not below 80% each time.
As to `O=C(C1OCCO1)N(Cc1ccc(-c2noc(C(F)(F)F)n2)cc1)Cc1ccco1` [Compound 1.473, N-(2-furylmethyl)-N-[[4-[5-(trifluoromethyl)-1,2,4-oxadiazol-3-yl]phenyl]methyl]-1,3-dioxolane-2-carboxamide], the inhibition of growth at 20 ppm in test [1] is not below 80%. For the same compound, the pest or weed control at 200 ppm in test [2] and in test [3] was not below 80% in each case.
`COCCN(Cc1ccc(-c2noc(C(F)(F)F)n2)cc1)C(=O)COC(C)=O` [Compound 1.348, [2-[2-methoxyethyl-[[4-[5-(trifluoromethyl)-1,2,4-oxadiazol-3-yl]phenyl]methyl]-amino]-2-oxo-ethyl] acetate]: the inhibition of growth at 20 ppm in test [1] was not below 80%. Besides, the pest or weed control at 200 ppm in test [2] and in test [3] was not below 80% in each case.
`CC(=O)OCC(=O)N(Cc1ccc(-c2noc(C(F)(F)F)n2)cc1)CC1CCCO1` (centres unmarked) [Compound 1.435, [2-oxo-2-[tetrahydrofuran-2-ylmethyl-[[4-[5-(trifluoromethyl)-1,2,4-oxadiazol-3-yl]phenyl]methyl]-amino]ethyl] acetate]: the inhibition of growth at 20 ppm in test [1] is not below 80%. Moreover, the pest or weed control at 200 ppm in test [2] and in test [3] was not below 80% each time.
`CCN(Cc1ccc(-c2noc(C(F)(F)F)n2)cc1)C(=O)CNC(C)=O` [Compound 1.501, 2-acetamido-N-ethyl-N-[[4-[5-(trifluoromethyl)-1,2,4-oxadiazol-3-yl]phenyl]methyl]-acetamide]: in test [1], the inhibition of growth at 20 ppm was not below 80%. For the same compound, the pest or weed control at 200 ppm in test [2] and in test [3] was not below 80% in each case.
Turning to `C#CC(=O)N(Cc1ccc(-c2noc(C(F)(F)F)n2)cc1)CC1CCCO1` (centres unmarked) [Compound 1.434, N-(tetrahydrofuran-2-ylmethyl)-N-[[4-[5-(trifluoromethyl)-1,2,4-oxadiazol-3-yl]phenyl]methyl] prop-2-ynamide], the inhibition of growth at 20 ppm in test [1] was not below 80%. Besides, the pest or weed control at 200 ppm in test [2] and in test [3] was not below 80% in each case.
In the case of `C#CCN(C(=O)N(C)Cc1ccc(-c2noc(C(F)(F)F)n2)cc1)C1CC1` [Compound 3.80, 1-cyclopropyl-3-methyl-1-prop-2-ynyl-3-[[4-[5-(trifluoromethyl)-1,2,4-oxadiazol-3-yl]phenyl]methyl]urea], the inhibition of growth at 20 ppm in test [1] was not below 80%. Besides, the pest or weed control at 200 ppm in test [2] and in test [3] was not below 80% each time.
